Data as given in patent publication US7888357B2, “Anti-inflammatory and protein kinase inhibitor compositions and related methods for downregulation of detrimental cellular responses and inhibition of cell death” (Northwestern University, priority 2001, dated 2011).

What was measured:
cell culture = assay: Cytotoxicity in cell culture; format: cell-based; conditions: over the entire dose range of inhibitor
From the text: The inhibition of iNOS and IL-1β production by MW01-070C, however, is not limited to LPS stimulation. […] The rationale for examination of Aβ stimulation is its involvement as an initiating event in models of AD initiation and progression. The stimulation by Aβ is seen (FIG. 6) with preparations of the Aβ peptide (see Experimental Procedures) that are known to have neurotoxic activity [Hu, J., Akama, K. T., Krafft, G. A., Chromy, B. A., and Van Eldik, L. J. (1998) Brain Res. 785, 195-206; Lambert, M. P. Barlow, A. K., Chromy, B. A., Edwards, C., Freed, R., Liosatos, M., Morgan, T. E., Rozovsky, I., Trommer, B., Viola, K. L., Wals, P., Zhang, C., Finch, C. E., Kraffk, G. A., and Klein, W. L. (1998) Proc. Natl. Acad. Sci. USA 95, 6448-6453]. The rationale for examination of S100 stimulation is its presence as an astrocyte protein that can function as an autocrine and paracrine cytokine, and its increased production in AD and other neuroinflammatory related disorders [Griffin, W. S. T., Stanley, L. C., Ling, C., White, L., MacLeod, V., Perrot, L. J., White, C. L., III, and Araoz, C. (1989) Proc. Natl. Acad. Sci. USA 86, 7611-7615; Hu, J., Castets, F., Guevara, J. L., and Van Eldik, L. J. (1996) J. Biol. Chem. 271, 2543-2547; Donato, R. (1999) Biochim. Biophys. Acta 1450, 191-231; Van Eldik, L. J., and Griffin, W. S. T. (1994) Biochim. Biophys. Acta 1223, 398-403]. […]

[1] = target: T1, myosin light chain kinase (MLCK) (Gallus gallus, UniProt P11799); assay: Reconstituted enzyme assay, MLCK; format: biochemical, chicken; conditions: γ-[32P]-ATP, synthetic peptide substrate; mean ± SEM; read-out: IC50 MLCK
T1 construct: chicken gizzard MLCK prepared as described; from tissue; host or cells: chicken gizzard
Protocol: (§1) [table] […] The rationale for using BV-2 cells in high throughput screening was the paucity of well-characterized human microglial cell lines, and the relevant activation responses and signaling pathways reflect those seen in human and rodent primary microglial cultures. Compounds were tested for their effects on NO accumulation in conditioned media of LPS-stimulated BV-2 cells by measurement of nitrite production by the Griess assay as a read-out for iNOS activity, as described previously. Stock solutions of compounds were prepared in dimethylsulfoxide (DMSO) or in water. When stock solutions were prepared in DMSO, control wells contained the same final concentration of DMSO as the compound-containing wells. […] Solutions of compounds for cell treatments were diluted to a 10× final concentration by dilution of stock solutions in αMEM media. […] Reconstituted enzyme assays were done as described s. The sources of protein kinases were: bovine heart PKA from Promega, rat brain PKC from Calbiochem, rat CaMKII from New England Biolabs, chicken gizzard MLCK prepared as described, and a p38 MAP kinase kit containing recombinant Xenopus p38-MAPK and its human substrate from Upstate Biotechnology. The catalytic domains of these protein kinases retain a high level of amino acid sequence identity across mammalian species, consistent with the lack of documented major differences across species for the in vitro catalytic activity of a given kinase.

[2] = target: death associated protein kinase (DAPK) (Homo sapiens, UniProt P53355); assay: Enzyme assay, DAPK; format: biochemical; conditions: read-out: DAPK IC50
Protocol: Therefore, compound MW01-026Z was selected as a starting point for variations on component A (Table 6). […] However, none of the A variations appeared to improve the activity and selectivity profile of CompoundMW01-026Z. (For purposes of illustration, only, component G was maintained throughout as an acyl moiety, while component R2 was varied as shown. All such compositions are available using the synthetic techniques described herein. Enzyme assays were conducted per procedures described elsewhere herein.) A more comprehensive structure activity relationship is summarized in Table 7, below.
With reference to the compositions of Table 3 and the enzyme assay techniques described elsewhere herein, Table 7 provides structural activity relationships observed, in accordance with this invention.

p38 MAPK = target: T2, p38 MAPK (Xenopus laevis, UniProt P47812); assay: Reconstituted enzyme assay, p38 MAPK; format: biochemical; conditions: γ-[32P]-ATP, synthetic peptide substrate
T2 construct: purchased Upstate Biotechnology
Protocol: as §1, with “The catalytic domains of these protein kinases retain a high level of amino acid sequence identity across mammalian species, consistent with the lack of documented major differences across species for the in vitro catalytic activity of a given kinase.” left out

protein kinase C (PKC) = assay: Reconstituted enzyme assay, PKC; format: biochemical, rat; conditions: γ-[32P]-ATP, synthetic peptide substrate; read-out: IC50 PKC
Protocol: as §1

CaMKII = target: T3, CaMKII (Rattus norvegicus, UniProt P11275); assay: Reconstituted enzyme assay, CaMKII; format: biochemical; conditions: γ-[32P]-ATP, synthetic peptide substrate; mean ± SEM; read-out: IC50 CaMKII
T3 construct: purchased New England Biolabs
Protocol: as §1

Sequence of death associated protein kinase (DAPK) (P53355 whole entry, species assumed): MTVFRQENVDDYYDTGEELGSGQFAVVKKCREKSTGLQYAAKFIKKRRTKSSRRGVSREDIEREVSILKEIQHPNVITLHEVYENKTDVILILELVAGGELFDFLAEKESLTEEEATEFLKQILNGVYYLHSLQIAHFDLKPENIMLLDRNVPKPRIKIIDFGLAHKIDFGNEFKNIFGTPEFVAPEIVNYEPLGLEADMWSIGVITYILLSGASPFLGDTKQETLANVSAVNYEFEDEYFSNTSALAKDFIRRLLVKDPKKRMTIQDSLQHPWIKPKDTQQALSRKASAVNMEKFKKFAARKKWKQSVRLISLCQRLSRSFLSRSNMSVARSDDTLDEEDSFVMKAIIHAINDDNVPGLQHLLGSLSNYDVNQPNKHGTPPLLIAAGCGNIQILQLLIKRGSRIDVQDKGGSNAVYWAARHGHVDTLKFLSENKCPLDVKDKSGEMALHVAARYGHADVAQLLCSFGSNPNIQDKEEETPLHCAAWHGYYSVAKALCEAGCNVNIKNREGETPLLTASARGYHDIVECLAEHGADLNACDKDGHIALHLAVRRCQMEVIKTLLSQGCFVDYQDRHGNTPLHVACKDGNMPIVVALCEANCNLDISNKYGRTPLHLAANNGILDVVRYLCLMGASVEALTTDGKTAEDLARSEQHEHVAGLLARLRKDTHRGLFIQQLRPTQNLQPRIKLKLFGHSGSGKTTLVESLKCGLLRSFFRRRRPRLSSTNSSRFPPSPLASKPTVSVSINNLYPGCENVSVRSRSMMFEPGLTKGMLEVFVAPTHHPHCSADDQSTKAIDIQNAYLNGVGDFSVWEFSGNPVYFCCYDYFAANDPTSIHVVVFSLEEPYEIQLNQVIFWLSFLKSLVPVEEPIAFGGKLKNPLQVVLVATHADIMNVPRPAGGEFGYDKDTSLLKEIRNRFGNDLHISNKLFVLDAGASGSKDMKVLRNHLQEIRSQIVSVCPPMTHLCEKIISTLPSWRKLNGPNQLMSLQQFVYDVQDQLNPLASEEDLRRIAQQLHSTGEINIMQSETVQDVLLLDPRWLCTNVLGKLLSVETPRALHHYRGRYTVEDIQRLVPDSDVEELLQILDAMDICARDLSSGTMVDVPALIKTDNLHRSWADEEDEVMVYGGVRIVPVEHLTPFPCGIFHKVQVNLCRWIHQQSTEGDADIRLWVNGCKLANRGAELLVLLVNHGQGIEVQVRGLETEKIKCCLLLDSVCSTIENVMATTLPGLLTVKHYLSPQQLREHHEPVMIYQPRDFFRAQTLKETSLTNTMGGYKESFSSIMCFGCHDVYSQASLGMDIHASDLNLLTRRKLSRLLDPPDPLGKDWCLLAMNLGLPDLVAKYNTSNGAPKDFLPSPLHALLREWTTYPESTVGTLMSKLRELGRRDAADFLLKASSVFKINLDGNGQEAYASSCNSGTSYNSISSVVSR
T2 sequence (P47812 whole entry): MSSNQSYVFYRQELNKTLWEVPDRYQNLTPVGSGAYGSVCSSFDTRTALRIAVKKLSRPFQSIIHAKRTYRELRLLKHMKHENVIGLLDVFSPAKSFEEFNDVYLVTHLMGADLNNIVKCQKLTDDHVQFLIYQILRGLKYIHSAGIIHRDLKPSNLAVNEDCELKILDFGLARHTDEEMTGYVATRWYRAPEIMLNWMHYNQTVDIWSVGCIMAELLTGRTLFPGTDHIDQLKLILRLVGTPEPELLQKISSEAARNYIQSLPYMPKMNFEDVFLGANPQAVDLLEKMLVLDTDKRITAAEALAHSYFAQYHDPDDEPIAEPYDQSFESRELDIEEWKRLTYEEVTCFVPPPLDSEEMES
T1 sequence (P11799 935-1906): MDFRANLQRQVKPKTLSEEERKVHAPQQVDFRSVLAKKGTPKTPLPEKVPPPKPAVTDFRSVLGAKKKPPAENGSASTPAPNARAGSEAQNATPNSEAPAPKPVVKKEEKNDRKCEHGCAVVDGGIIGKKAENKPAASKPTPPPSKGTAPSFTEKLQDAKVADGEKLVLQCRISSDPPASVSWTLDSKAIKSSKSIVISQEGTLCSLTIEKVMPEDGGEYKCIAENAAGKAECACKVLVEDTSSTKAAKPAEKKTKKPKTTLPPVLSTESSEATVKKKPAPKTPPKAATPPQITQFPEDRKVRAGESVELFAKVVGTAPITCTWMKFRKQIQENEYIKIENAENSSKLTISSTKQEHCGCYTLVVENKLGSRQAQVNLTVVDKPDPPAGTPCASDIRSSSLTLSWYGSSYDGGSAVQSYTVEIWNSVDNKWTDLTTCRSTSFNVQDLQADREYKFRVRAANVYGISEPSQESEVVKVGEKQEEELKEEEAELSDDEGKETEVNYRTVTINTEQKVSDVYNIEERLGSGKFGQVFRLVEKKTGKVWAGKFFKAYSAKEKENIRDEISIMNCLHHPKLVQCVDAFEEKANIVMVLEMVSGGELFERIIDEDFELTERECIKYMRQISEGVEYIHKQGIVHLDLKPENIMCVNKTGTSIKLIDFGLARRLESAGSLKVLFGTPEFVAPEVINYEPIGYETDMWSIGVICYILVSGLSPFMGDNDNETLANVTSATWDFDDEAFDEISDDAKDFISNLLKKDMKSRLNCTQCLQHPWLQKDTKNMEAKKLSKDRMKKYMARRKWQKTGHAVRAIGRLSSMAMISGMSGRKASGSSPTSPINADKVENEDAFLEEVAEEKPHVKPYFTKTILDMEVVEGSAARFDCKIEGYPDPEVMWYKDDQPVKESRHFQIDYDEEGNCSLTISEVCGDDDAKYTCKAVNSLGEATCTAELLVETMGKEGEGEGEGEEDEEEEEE
T3 sequence (P11275 1-325 limits assumed): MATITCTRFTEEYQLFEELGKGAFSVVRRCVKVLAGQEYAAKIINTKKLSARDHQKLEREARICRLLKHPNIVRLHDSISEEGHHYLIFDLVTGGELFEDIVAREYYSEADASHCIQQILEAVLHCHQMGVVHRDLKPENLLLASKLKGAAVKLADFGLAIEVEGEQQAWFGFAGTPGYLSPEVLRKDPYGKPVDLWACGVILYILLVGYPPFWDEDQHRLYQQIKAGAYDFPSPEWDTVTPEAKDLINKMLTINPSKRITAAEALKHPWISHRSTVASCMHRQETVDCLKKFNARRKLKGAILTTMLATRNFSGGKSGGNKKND

N=c1cc2c(nn1CCCCCCCCCCC(=O)N1CCN(c3ncccn3)CC1)-c1ccccc1CC2 [MW01-070C]
cytotoxicity in cell culture (cell culture): no evidence of cytotoxicity
IC50 [1]: > 100 µM
IC50 [2]: 80 to 100 µM
IC50 (p38 MAPK): > 100 µM
IC50 (protein kinase C (PKC)): > 100 µM
IC50 (CaMKII): 9.7 ± 1.9 µM
